Laboratory results published in patent US9453051B2, “Cyclosporin derivatives” (priority 2011, dated 2016).

Legend:
[1] = target: recombinant human wild type Cyp18 (Cyp18 wt) (Homo sapiens, UniProt P62937); assay: biochemical
calcineurin = calcineurin (Homo sapiens, UniProt P62937+P63098+Q08209); assay: Inhibition of the phosphatase activity of calcineurin (scintillation-proximity-assay, in presence of Cyp18);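 further: calcineurin dephosphorylation of a ³³P-labelled RII phosphopeptide, captured on streptavidin-coated wells and read by scintillation counting, with uninhibited enzyme activity taken as 100%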
Protocol: The measurement was carried out by incubation of 10 μMol of the biotinylated phosphopeptide [sequence]pSer-Val-Ala-Ala-Glu (MW=2192.0) (RH-peptide) marked with ^33P in a sample buffer (40 mM Tris-HCl, pH 7.5, 100 mM NaCl, 6 mM MgCl2, 0.5 mM dithiothreitol, 1 mM. CaCl2, 0.1 mg/ml bovine serum albumin) in presence of 50 nM calmodulin and 1.32 nM calcineurin at 30° C. for 20 min in a 96 well micro titer plate (Costar, Bodenheim, Germany). The total volume of the assay/well was 100 μl. After this reaction time a 90 μl aliquot of the reaction mixture was transferred into a scintillation cavity coated with streptavidin and incubated for 20 min at 22° C. After a washing step the RII phosphopeptide-associated ^33P radioactivity was measured in a MicroBeta Top Counter (Wallac) and the enzyme activity was indicated as average value of three measurements±S.D. The uninhibited dephosphorylation activity has been set on 100%.

recombinant human wild type Cyp18 (Cyp18 wt), sequence (P62937 whole entry): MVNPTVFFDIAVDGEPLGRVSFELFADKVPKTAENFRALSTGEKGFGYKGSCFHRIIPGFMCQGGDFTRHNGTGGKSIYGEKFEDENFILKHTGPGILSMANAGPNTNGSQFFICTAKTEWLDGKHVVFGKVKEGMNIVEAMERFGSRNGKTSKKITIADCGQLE

| Compound | IC50 [1] | IC50 (calcineurin) |
| --- | --- | --- |
| CC[C@@H]1NC(=O)[C@H]([C@H](O)[C@H](C)CC2=N[C@@H]3CS[C@H](CCCCC(=O)O)[C@@H]3N2)N(C)C(=O)[C@H](C(C)C)N(C)C(=O)[C@H](CC(C)C)N(C)C(=O)[C@H](CC(C)C)N(C)C(=O)[C@@H](C)NC(=O)[C@H](C)NC(=O)[C@H](CC(C)C)N(C)C(=O)[C@H](C(C)C)NC(=O)[C@H](CC(C)C)N(C)C(=O)CN(C)C1=O [Compound 4] | 264 nM | > 10000 nM |
| CC[C@@H]1NC(=O)[C@H]([C@H](O)[C@H](C)Cc2nc3cc(C(=O)O)ccc3o2)N(C)C(=O)[C@H](C(C)C)N(C)C(=O)[C@H](CC(C)C)N(C)C(=O)[C@H](CC(C)C)N(C)C(=O)[C@@H](C)NC(=O)[C@H](C)NC(=O)[C@H](CC(C)C)N(C)C(=O)[C@H](C(C)C)NC(=O)[C@H](CC(C)C)N(C)C(=O)CN(C)C1=O [Compound 6] | 700 nM | – |
| CC[C@@H]1NC(=O)[C@H]([C@H](O)[C@H](C)Cc2nc3cc(/C=C/C(=O)OC(C)(C)C)ccc3[nH]2)N(C)C(=O)[C@H](C(C)C)N(C)C(=O)[C@H](CC(C)C)N(C)C(=O)[C@H](CC(C)C)N(C)C(=O)[C@@H](C)NC(=O)[C@H](C)NC(=O)[C@H](CC(C)C)N(C)C(=O)[C@H](C(C)C)NC(=O)[C@H](CC(C)C)N(C)C(=O)CN(C)C1=O [Compound 14] | 36.4 nM | 3200 nM |
| CC[C@@H]1NC(=O)[C@H]([C@H](O)[C@H](C)Cc2nc3nc(S)nc(S)c3[nH]2)N(C)C(=O)[C@H](C(C)C)N(C)C(=O)[C@H](CC(C)C)N(C)C(=O)[C@H](CC(C)C)N(C)C(=O)[C@@H](C)NC(=O)[C@H](C)NC(=O)[C@H](CC(C)C)N(C)C(=O)[C@H](C(C)C)NC(=O)[C@H](CC(C)C)N(C)C(=O)CN(C)C1=O [Compound 16] | 15.1 nM | 7500 nM |
| CC[C@@H]1NC(=O)[C@H]([C@H](O)[C@H](C)Cc2nc3cc(S(=O)(=O)O)cc(F)c3[nH]2)N(C)C(=O)[C@H](C(C)C)N(C)C(=O)[C@H](CC(C)C)N(C)C(=O)[C@H](CC(C)C)N(C)C(=O)[C@@H](C)NC(=O)[C@H](C)NC(=O)[C@H](CC(C)C)N(C)C(=O)[C@H](C(C)C)NC(=O)[C@H](CC(C)C)N(C)C(=O)CN(C)C1=O [Compound 48] | 8.7 nM | > 10000 nM |
| CC[C@@H]1NC(=O)[C@H]([C@H](O)[C@H](C)Cc2nc3cc(C(=O)N4CCCC4C(=O)N4CCC[C@H]4C(=O)N4CCCC4C(=O)N4CCC[C@H]4C(=O)N4CCCC4C(=O)N4CCC[C@H]4C(=O)O)ccc3[nH]2)N(C)C(=O)[C@H](C(C)C)N(C)C(=O)[C@H](CC(C)C)N(C)C(=O)[C@H](CC(C)C)N(C)C(=O)[C@@H](C)NC(=O)[C@H](C)NC(=O)[C@H](CC(C)C)N(C)C(=O)[C@H](C(C)C)NC(=O)[C@H](CC(C)C)N(C)C(=O)CN(C)C1=O (stereo partly shown) [Compound 49] | 30.9 nM | > 10000 nM |
| CC[C@@H]1NC(=O)[C@H]([C@H](O)[C@H](C)Cc2nc3cc(C(=O)NCCC(=O)NCCC(=O)NCCC(=O)NCCC(=O)NCCC(=O)NCCC(=O)O)ccc3[nH]2)N(C)C(=O)[C@H](C(C)C)N(C)C(=O)[C@H](CC(C)C)N(C)C(=O)[C@H](CC(C)C)N(C)C(=O)[C@@H](C)NC(=O)[C@H](C)NC(=O)[C@H](CC(C)C)N(C)C(=O)[C@H](C(C)C)NC(=O)[C@H](CC(C)C)N(C)C(=O)CN(C)C1=O [Compound 51] | 7.3 nM | > 10000 nM |
| CC[C@@H]1NC(=O)[C@H]([C@H](O)[C@H](C)Cc2nc3cc(C(=O)NCCN(C)C)ccc3[nH]2)N(C)C(=O)[C@H](C(C)C)N(C)C(=O)[C@H](CC(C)C)N(C)C(=O)[C@H](CC(C)C)N(C)C(=O)[C@@H](C)NC(=O)[C@H](C)NC(=O)[C@H](CC(C)C)N(C)C(=O)[C@H](C(C)C)NC(=O)[C@H](CC(C)C)N(C)C(=O)CN(C)C1=O [Compound 52] | 8 nM | > 10000 nM |
| CC[C@@H]1NC(=O)[C@H]([C@H](O)[C@H](C)Cc2nc3cc(C(=O)NCCN4CCOCC4)ccc3[nH]2)N(C)C(=O)[C@H](C(C)C)N(C)C(=O)[C@H](CC(C)C)N(C)C(=O)[C@H](CC(C)C)N(C)C(=O)[C@@H](C)NC(=O)[C@H](C)NC(=O)[C@H](CC(C)C)N(C)C(=O)[C@H](C(C)C)NC(=O)[C@H](CC(C)C)N(C)C(=O)CN(C)C1=O [Compound 53] | 12.7 nM | 4200 nM |
| CC[C@@H]1NC(=O)[C@H]([C@H](O)[C@H](C)Cc2nc3cc(C(=O)NCCN4CCN(C(=O)CCC(=O)O)CC4)ccc3[nH]2)N(C)C(=O)[C@H](C(C)C)N(C)C(=O)[C@H](CC(C)C)N(C)C(=O)[C@H](CC(C)C)N(C)C(=O)[C@@H](C)NC(=O)[C@H](C)NC(=O)[C@H](CC(C)C)N(C)C(=O)[C@H](C(C)C)NC(=O)[C@H](CC(C)C)N(C)C(=O)CN(C)C1=O [Compound 54] | 7.1 nM | 7200 nM |
| CC[C@@H]1NC(=O)[C@H]([C@H](O)[C@H](C)Cc2nc3cc(C(=O)N[C@@H](CCC(=O)OCc4ccccc4)C(=O)N[C@@H](CCC(=O)OCc4ccccc4)C(N)=O)ccc3[nH]2)N(C)C(=O)[C@H](C(C)C)N(C)C(=O)[C@H](CC(C)C)N(C)C(=O)[C@H](CC(C)C)N(C)C(=O)[C@@H](C)NC(=O)[C@H](C)NC(=O)[C@H](CC(C)C)N(C)C(=O)[C@H](C(C)C)NC(=O)[C@H](CC(C)C)N(C)C(=O)CN(C)C1=O [Compound 57] | 16.9 nM | – |
| CC[C@@H]1NC(=O)[C@H]([C@H](O)[C@H](C)Cc2nc3cc(C(=O)N[C@@H](CS)C(=O)N[C@@H](C)C(N)=O)ccc3[nH]2)N(C)C(=O)[C@H](C(C)C)N(C)C(=O)[C@H](CC(C)C)N(C)C(=O)[C@H](CC(C)C)N(C)C(=O)[C@@H](C)NC(=O)[C@H](C)NC(=O)[C@H](CC(C)C)N(C)C(=O)[C@H](C(C)C)NC(=O)[C@H](CC(C)C)N(C)C(=O)CN(C)C1=O [Compound 60] | ~10 nM | – |
| CC[C@@H]1NC(=O)[C@H]([C@H](O)[C@H](C)Cc2nc3cc(C(=O)N[C@@H](CS)C(=O)N[C@@H](CS)C(N)=O)ccc3[nH]2)N(C)C(=O)[C@H](C(C)C)N(C)C(=O)[C@H](CC(C)C)N(C)C(=O)[C@H](CC(C)C)N(C)C(=O)[C@@H](C)NC(=O)[C@H](C)NC(=O)[C@H](CC(C)C)N(C)C(=O)[C@H](C(C)C)NC(=O)[C@H](CC(C)C)N(C)C(=O)CN(C)C1=O [Compound 61] | ~10 nM | – |
| CC[C@@H]1NC(=O)[C@H]([C@H](O)[C@H](C)Cc2nc3cc(C(=O)N[C@@H](CO)C(=O)N[C@@H](CCC(=O)O)C(N)=O)ccc3[nH]2)N(C)C(=O)[C@H](C(C)C)N(C)C(=O)[C@H](CC(C)C)N(C)C(=O)[C@H](CC(C)C)N(C)C(=O)[C@@H](C)NC(=O)[C@H](C)NC(=O)[C@H](CC(C)C)N(C)C(=O)[C@H](C(C)C)NC(=O)[C@H](CC(C)C)N(C)C(=O)CN(C)C1=O [Compound 62] | 4.4 nM | – |
| CC[C@@H]1NC(=O)[C@H]([C@H](O)[C@H](C)Cc2nc3cc(C(=O)N[C@@H](CCC(=O)O)C(=O)N[C@@H](CCC(=O)O)C(N)=O)ccc3[nH]2)N(C)C(=O)[C@H](C(C)C)N(C)C(=O)[C@H](CC(C)C)N(C)C(=O)[C@H](CC(C)C)N(C)C(=O)[C@@H](C)NC(=O)[C@H](C)NC(=O)[C@H](CC(C)C)N(C)C(=O)[C@H](C(C)C)NC(=O)[C@H](CC(C)C)N(C)C(=O)CN(C)C1=O [Compound 63] | 5.1 nM | – |
| CC[C@@H]1NC(=O)[C@H]([C@H](O)[C@H](C)Cc2nc3cc(C(=O)NCCN4CCNCC4)ccc3[nH]2)N(C)C(=O)[C@H](C(C)C)N(C)C(=O)[C@H](CC(C)C)N(C)C(=O)[C@H](CC(C)C)N(C)C(=O)[C@@H](C)NC(=O)[C@H](C)NC(=O)[C@H](CC(C)C)N(C)C(=O)[C@H](C(C)C)NC(=O)[C@H](CC(C)C)N(C)C(=O)CN(C)C1=O [Compound 64] | 17.2 nM | – |
